One block for each molecule: values may come before it. Activity calls are given as the source filed them. No cut-off for these calls is given here.
Experiments:
[1] = system: Kidney; assay: Release of H2S in mouse kidney homogenate at 10 to 300 uM measured for 10 mins by methylene blue formation assay; type: ADME, tissue-based; settings: tissue homogenate, dose 10-300 µM
[2] = system: Mus musculus; assay: Antihistamine effect in mouse assessed as Inhibition of histamine-induced increase vascular leakage in skin tissue at 50 mg/kg, ip pretreated 30 mins before Evans blue injection followed by injected with histamine mouse euthanized and skin excised by Miles assay; type: functional, organism-based
[3] = Drug metabolism in mouse assessed as fold increase in plasma CET at 50 mg/kg, ip by LC-MS/MS analysis; type: ADME, organism-based; settings: in vivo
[4] = system: HUVE; assay: (§1) Antihistamine effect in HUVEC cells assessed as inhibition of histamine-induced tissue factor expression pretreated 30 mins before addition of his measured after 2 hrs after addition of TRIzol by spectrophotometry; type: functional, cell-based; settings: Homo sapiens
[5] = as §1; type: functional, cell-based; settings: Homo sapiens, HUVE
[6] = system: Mus musculus; assay: Antipruritic effect in mouse assessed as reduction in histamine-induced itching duration at 50 mg/kg ip pretreated 30 mins before histamine and recorded for 10 mins relative to CET; type: functional, organism-based
[7] = system: Mus musculus; assay: Antipruritic effect in mouse assessed as reduction in PAR-2-induced itching duration at 50 mg/kg ip pretreated 30 mins before histamine and recorded for 10 mins; type: functional, organism-based
[8] = system: HepG2; assay: Release of H2S in human HepG2 cells measured for 24 hrs by lead acetate method; type: ADME, cell-based; settings: hepg2, 24 h, dose 0.5-3 mM
[9] = Toxicity in histamine-induced mouse itching mouse model assessed as reduction in locomotion at 15 mg/kg ip; type: organism-based; settings: in vivo
[10] = system: Mus musculus; assay: Antipruritic effect in mouse assessed as reduction in PAR-2-induced itching duration at 15 mg/kg ip pretreated 30 mins before histamine and recorded for 10 mins; type: functional, organism-based
[11] = system: Mus musculus; assay: Antipruritic effect in mouse assessed as reduction in histamine-induced itching duration at 15 mg/kg ip pretreated 30 mins before histamine and recorded for 10 mins; type: functional, organism-based
[12] = Plasma concentration in mouse at 1 mg/kg, ip measured after 30 mins by LC-MS/MS analysis; type: ADME, organism-based
[13] = Drug metabolism in mouse assessed as fold increase in plasma HDZ at 50 mg/kg, ip by LC-MS/MS analysis; type: ADME, organism-based; settings: in vivo
[14] = system: Mus musculus; assay: Antipruritic effect in mouse assessed as reduction in histamine-induced itching duration at 60 to 120 mg/kg ip pretreated 30 mins before histamine and recorded for 10 mins; type: functional; settings: dose 60-120 mg/kg, 0.5 h
[15] = Toxicity in histamine-induced mouse itching mouse model assessed as reduction in locomotion at 60 to 120 mg/kg ip; type: organism-based; settings: in vivo, dose 60-120 mg/kg
[16] = system: Mus musculus; assay: Antihistamine effect in mouse assessed as Inhibition of histamine-induced increase vascular leakage in skin tissue at 15 mg/kg, ip pretreated 30 mins before Evans blue injection followed by injected with histamine mouse euthanized and skin excised by Miles assay; type: functional, organism-based
[17] = Toxicity in mouse assessed as sedative effect by measuring reduction in locomotion at 70 mg/kg ip; type: organism-based; settings: in vivo
[18] = system: Mus musculus; assay: Antipruritic effect in mouse assessed as reduction in histamine-induced itching duration at 5 mg/kg ip pretreated 30 mins before histamine and recorded for 10 mins; type: functional, organism-based
[19] = system: Mus musculus; assay: Antihistamine effect in mouse assessed as Inhibition of histamine-induced increase vascular leakage in skin tissue at 1 mg/kg, ip pretreated 30 mins before Evans blue injection followed by injected with histamine mouse euthanized and skin excised by Miles assay; type: functional, organism-based
[20] = system: Mus musculus; assay: Antipruritic effect in mouse assessed as reduction in histamine-induced itching duration at 1 mg/kg ip pretreated 30 mins before histamine and recorded for 10 mins; type: functional, organism-based
[21] = system: Mus musculus; assay: Antipruritic effect in mouse assessed as reduction in PAR-2-induced itching duration at 1 mg/kg ip pretreated 30 mins before histamine and recorded for 10 mins; type: functional, organism-based
[22] = Toxicity in mouse assessed as sedative effect by measuring reduction in locomotion at 50 mg/kg ip; type: organism-based; settings: in vivo
[23] = system: Mus musculus; assay: Antipruritic effect in mouse assessed as reduction in PAR-2-induced itching duration at 10 mg/kg ip pretreated 30 mins before histamine and recorded for 10 mins; type: functional, organism-based
[24] = system: Mus musculus; assay: Antihistamine effect in mouse assessed as Inhibition of histamine-induced increase vascular leakage in skin tissue at 10 mg/kg, ip pretreated 30 mins before Evans blue injection followed by injected with histamine mouse euthanized and skin excised by Miles assay; type: functional, organism-based
[25] = system: Mus musculus; assay: Antipruritic effect in mouse assessed as reduction in histamine-induced itching duration at 10 mg/kg ip pretreated 30 mins before histamine and recorded for 10 mins; type: functional, organism-based
[26] = system: Mus musculus; assay: Antipruritic effect in mouse assessed as reduction in histamine-induced itching duration at 30 mg/kg ip pretreated 30 mins before histamine and recorded for 10 mins; type: functional, organism-based
[27] = Plasma concentration in mouse at 10 mg/kg, ip measured after 30 mins by LC-MS/MS analysis
[28] = system: Mus musculus; assay: Antipruritic effect in mouse assessed as reduction in histamine-induced itching duration at 3.5 mg/kg ip pretreated 30 mins before histamine and recorded for 10 mins relative to HDZ; type: functional, organism-based
[29] = system: Mus musculus; assay: Antipruritic effect in mouse assessed as reduction in histamine-induced itching duration at 20 mg/kg ip pretreated 30 mins before histamine and recorded for 10 mins; type: functional, organism-based

Drug metabolism [1]: Dose-Dependent Effect
Structure (SMILES): O=C(COCCN1CCN(C(c2ccccc2)c2ccc(Cl)cc2)CC1)OCCCCCCOc1ccc(-c2cc(=S)ss2)cc1 (racemic)

fold change (FC) [3]: 3 | Drug metabolism [1]: Dose-Dependent Effect | IC50 [5]: 812 nM | Drug metabolism [8]: Dose-Dependent Effect
Structure (SMILES): O=C(COCCN1CCN(C(c2ccccc2)c2ccc(Cl)cc2)CC1)OCCOc1ccc(-c2cc(=S)ss2)cc1 (racemic)
inhibition [2]: Active | inhibition [4]: Dose-Dependent Effect | inhibition [6]: Active | inhibition [7]: Active

concentration at 0.5 h [12]: 36.1 ng/mL | fold change (FC) [13]: 15 | Drug metabolism [1]: Dose-Dependent Effect | IC50 [5]: 599 nM
Structure (SMILES): NC(=S)c1ccc(OC(=O)CCC(=O)OCCOCCN2CCN(C(c3ccccc3)c3ccc(Cl)cc3)CC2)cc1 (stereo unspecified)
Activity [9]: Non-Toxic | inhibition [10]: Active | inhibition [11]: Active | inhibition (INH) [14]: 100% | Activity [15]: Toxic | inhibition [4]: Dose-Dependent Effect | inhibition [16]: Active | Activity [17]: Non-Toxic

Drug metabolism [1]: Dose-Dependent Effect
Structure (SMILES): CCOCCn1c(C2CCN(CCc3ccc(C(C)(C)C(=O)Oc4ccc(C(N)=S)cc4)cc3)CC2)nc2ccccc21

Structure (SMILES): C[C@H]1CN(C2CCC(C#N)(c3ccc(F)cc3)CC2)CC[C@@]1(C(=O)Oc1ccc(-c2cc(=S)ss2)cc1)c1ccccc1 (stereo partly specified)
Drug metabolism [1]: Dose-Dependent Effect | Drug metabolism [8]: Dose-Dependent Effect

Drug metabolism [1]: Dose-Dependent Effect | IC50 [5]: 5.5 nM | Drug metabolism [8]: Dose-Dependent Effect
Structure (SMILES): O=C(CCC(=O)Oc1ccc(-c2cc(=S)ss2)cc1)OCCOCCN1CCN(C(c2ccccc2)c2ccc(Cl)cc2)CC1 (racemic)
inhibition [4]: Dose-Dependent Effect

IC50 [5]: 4.87 nM
Structure (SMILES): OCCOCCN1CCN(C(c2ccccc2)c2ccc(Cl)cc2)CC1 (stereo unspecified) [HYDROXYZINE]
Activity [18]: Active | inhibition [19]: Active | inhibition [4]: Dose-Dependent Effect | Activity [20]: Active | inhibition [21]: Active | Activity [22]: Toxic

IC50 [5]: 169 nM | concentration at 0.5 h [27]: 8460 ng/mL
Structure (SMILES): O=C(O)COCCN1CCN(C(c2ccccc2)c2ccc(Cl)cc2)CC1 (stereo unspecified) [CETIRIZINE]
inhibition [23]: Active | inhibition [4]: Dose-Dependent Effect | inhibition [24]: Active | Activity [25]: Active | Activity [26]: Active | Activity [17]: Toxic

Drug metabolism [1]: Dose-Dependent Effect | Drug metabolism [8]: Dose-Dependent Effect
Structure (SMILES): CCOCCn1c(C2CCN(CCc3ccc(C(C)(C)C(=O)Oc4ccc(-c5cc(=S)ss5)cc4)cc3)CC2)nc2ccccc21

Structure (SMILES): NC(=S)c1ccccc1
inhibition [28]: Active

Structure (SMILES): Oc1ccc(-c2cc(=S)ss2)cc1
inhibition [29]: Active

Structure (SMILES): C[C@H]1CN(C2CCC(C#N)(c3ccc(F)cc3)CC2)CC[C@@]1(C(=O)Oc1ccc(C(N)=S)cc1)c1ccccc1 (stereo partly specified)
Drug metabolism [1]: Dose-Dependent Effect

Drug metabolism [1]: Dose-Dependent Effect | IC50 [5]: 7.9 nM
Structure (SMILES): NC(=S)c1ccc(OCCCCCCOC(=O)COCCN2CCN(C(c3ccccc3)c3ccc(Cl)cc3)CC2)cc1 (racemic)
inhibition [4]: Dose-Dependent Effect

— ChEMBL document CHEMBL5346951, “Novel H2S-Releasing Bifunctional Antihistamine Molecules with Improved Antipruritic and Reduced Sedative Actions” (J Med Chem, 2023)
